Test results: paper PMC4743925, “Targeting an Essential GTPase Obg for the Development of Broad-Spectrum Antibiotics” (PLoS ONE, 2016)

Assays:
[1] = biological target: T1, ObgGC (Neisseria gonorrhoeae, UniProt Q5F5D9); assay: mant-nucleotide fluorescence increase; type: binding; settings: 2 μM protein, labelled compound
T1 construct: gene obg; full-length with C-terminal 6xHis tag, expressed in E. coli BL21(DE3), IMAC and size exclusion; tag not reported cut

[2] = biological target: T2, ObgKP (Klebsiella pneumoniae, UniProt A6TEK2); assay: mant-nucleotide fluorescence increase; type: binding; settings: 2 μM protein, labelled compound
T2 construct: gene obg; residues 1-392, N-terminal 6xHis tag and TEV site (modified pCDF-Duet1, pKV1414), expressed in E. coli BL21(DE3); tag not reported cut

[3] = 0.3 μM mant-GTP, 5 mM MgCl2, 37 °C

T1 sequence (Q5F5D9 whole entry): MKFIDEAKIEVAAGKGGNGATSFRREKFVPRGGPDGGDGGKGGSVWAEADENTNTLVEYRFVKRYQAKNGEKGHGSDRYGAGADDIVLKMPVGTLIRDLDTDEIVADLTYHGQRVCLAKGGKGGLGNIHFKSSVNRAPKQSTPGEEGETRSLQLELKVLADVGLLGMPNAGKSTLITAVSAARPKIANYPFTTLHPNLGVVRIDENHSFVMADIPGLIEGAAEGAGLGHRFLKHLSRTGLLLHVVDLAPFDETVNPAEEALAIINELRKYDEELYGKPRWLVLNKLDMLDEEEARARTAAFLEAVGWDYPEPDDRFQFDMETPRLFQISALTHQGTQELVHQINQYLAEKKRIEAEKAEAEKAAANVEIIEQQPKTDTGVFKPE
T2 sequence (A6TEK2 whole entry, the tested form may be a part): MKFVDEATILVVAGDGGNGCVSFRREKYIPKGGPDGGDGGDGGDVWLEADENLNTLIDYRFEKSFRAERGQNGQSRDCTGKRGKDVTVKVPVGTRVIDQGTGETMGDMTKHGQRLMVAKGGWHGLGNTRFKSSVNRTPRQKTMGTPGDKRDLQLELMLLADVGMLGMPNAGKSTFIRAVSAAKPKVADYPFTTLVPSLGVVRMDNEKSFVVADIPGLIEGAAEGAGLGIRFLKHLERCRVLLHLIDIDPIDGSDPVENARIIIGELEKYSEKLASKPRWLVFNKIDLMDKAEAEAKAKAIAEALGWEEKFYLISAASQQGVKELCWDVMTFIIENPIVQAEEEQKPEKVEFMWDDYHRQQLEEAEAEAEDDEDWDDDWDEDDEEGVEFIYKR

| SMILES | increase in RFU ([1]; 0.3 μM mant-GDP, no MgCl2, 37 °C) | fold increase in RFU ([2]; 0.3 μM mant-GDP, 37 °C) | increase in RFU [1, 3] | fold increase in RFU [2, 3] |
| --- | --- | --- | --- | --- |
| CNc1ccccc1C(=O)O[C@H]1[C@@H](O)[C@H](n2cnc3c(=O)[nH]c(N)nc32)O[C@@H]1COP(=O)(O)OP(=O)(O)O [mant-GDP] | Assessment of mant-nucleotides binding by wild type (ObgGC) and mutated (*ObgGC) | ~ 1.3 fold |  |  |
| CNc1ccccc1C(=O)O[C@H]1[C@@H](O)[C@H](n2cnc3c(=O)[nH]c(N)nc32)O[C@@H]1COP(=O)(O)OP(=O)(O)OP(=O)(O)O [mant-GTP] |  |  | Assessment of mant-nucleotides binding by wild type (ObgGC) and mutated (*ObgGC) | ~ 1.8 fold |
